Source: DBAASP
Converted amounts (≈) assume the structure as drawn.

Key:
Assay in all cases: ≥ marks a high value that may be exact or a test limit, other limits are often not marked, values filed in µg/mL are converted to µM
Bacillus subtilis 168 = tested on: Bacillus subtilis 168
Escherichia coli B = tested on: Escherichia coli B
Pseudomonas aeruginosa = tested on: Pseudomonas aeruginosa
Staphylococcus aureus = tested on: Staphylococcus aureus
Bacillus subtilis = tested on: Bacillus subtilis
[1] = tested on: Candida albicans ATCC 2002
[2] = tested on: Escherichia coli ATCC 25922
[3] = tested on: Staphylococcus aureus ATCC 25923
[4] = tested on: Bacillus subtilis KCTC 3068
[5] = tested on: Escherichia coli KCTC 1682
[6] = tested on: Pseudomonas aeruginosa KCTC 1637
[7] = tested on: Salmonella typhimurium KCTC 1926
[8] = tested on: Staphylococcus aureus KCTC 1621
[9] = tested on: Staphylococcus epidermidis KCTC 1917
Escherichia coli = tested on: Escherichia coli
[10] = tested on: Candida parapsilosis ATCC 22019
[11] = tested on: Staphylococcus epidermidis ATCC 12228

| Compound | MIC (Bacillus subtilis 168) [µM] | MIC (Escherichia coli B) [µM] | MIC (Pseudomonas aeruginosa) [µM] | MIC (Staphylococcus aureus) [µM] | also measured |
| --- | --- | --- | --- | --- | --- |
| CC[C@H](C)[C@H](NC(=O)[C@H](Cc1cnc[nH]1)NC(=O)[C@H](CCCCN)NC(=O)[C@H](CC(C)C)NC(=O)[C@H](CC(C)C)NC(=O)[C@H](CO)NC(=O)[C@H](CCSC)NC(=O)[C@H](Cc1c[nH]c2ccccc12)NC(=O)[C@H](CCCCN)NC(=O)[C@@H](N)CCCCN)C(=O)N[C@@H](CC(C)C)C(=O)N[C@@H](CCCCN)C(N)=O [KKWMSLLKHILK] | 1.1 (≈ 1.68 µg/mL) | 3 (≈ 4.57 µg/mL) | 25 (≈ 38.1 µg/mL) | 28.3 (≈ 43.1 µg/mL) |  |
| CC[C@H](C)[C@H](NC(=O)[C@H](CO)NC(=O)[C@H](CC(C)C)NC(=O)[C@H](Cc1ccccc1)NC(=O)CN)C(=O)N[C@@H](CC(C)C)C(=O)N[C@@H](CCCCN)C(=O)N[C@@H](CCCCN)C(=O)N[C@H](C(=O)N[C@@H](CC(C)C)C(=O)N[C@@H](CCCCN)C(=O)N[C@@H](CCCCN)C(=O)N[C@H](C(=O)N[C@@H](CCSC)C(=O)N[C@@H](C)C(=O)N[C@@H](Cc1cnc[nH]1)C(=O)N[C@@H](CCSC)C(=O)N[C@@H](CCCCN)C(N)=O)C(C)C)C(C)C [GFLSILKKVLKKVMAHMK] | 1.4 (≈ 2.9 µg/mL) | 1.8 (≈ 3.73 µg/mL) | 25.3 (≈ 52.4 µg/mL) | 13.8 (≈ 28.6 µg/mL) |  |
| CC[C@H](C)[C@H](NC(=O)[C@H](C)NC(=O)[C@H](CCCN=C(N)N)NC(=O)[C@H](Cc1ccc(O)cc1)NC(=O)[C@H](CC(C)C)NC(=O)[C@H](CC(N)=O)NC(=O)[C@H](Cc1ccc(O)cc1)NC(=O)CNC(=O)[C@H](C)NC(=O)[C@@H](NC(=O)[C@@H](NC(=O)[C@@H](NC(=O)[C@H](CCCN=C(N)N)NC(=O)[C@@H](NC(=O)[C@@H](NC(=O)[C@@H](NC(=O)[C@@H]1CCCN1C(=O)[C@H](Cc1c[nH]c2ccccc12)NC(=O)[C@H](Cc1ccccc1)NC(=O)[C@@H](N)CCCN=C(N)N)C(C)C)C(C)C)[C@@H](C)CC)[C@@H](C)O)C(C)C)C(C)C)C(=O)N[C@@H](CCCCN)C(=O)N[C@@H](CCCCN)C(=O)N[C@@H](CCCCN)C(=O)O [RFWPVVIRTVVAGYNLYRAIKKK] |  |  |  |  | MIC (Bacillus subtilis): 2.53 µM (≈ 7.03 µg/mL); MIC [1]: 0.211 µM (≈ 0.586 µg/mL); MIC [2]: 7.11 µM (≈ 19.8 µg/mL); MIC [3]: 0.422 µM (≈ 1.17 µg/mL) |
| CC[C@H](C)[C@H](NC(=O)[C@H](CO)NC(=O)[C@H](CC(C)C)NC(=O)[C@H](Cc1ccccc1)NC(=O)CN)C(=O)N[C@@H](CC(C)C)C(=O)N[C@@H](CCCCN)C(=O)N[C@@H](CCCCN)C(=O)N[C@H](C(=O)N[C@@H](CC(C)C)C(=O)NCC(=O)N[C@@H](CCCCN)C(=O)N[C@H](C(=O)N[C@@H](CCSC)C(=O)N[C@@H](C)C(=O)N[C@@H](Cc1cnc[nH]1)C(=O)N[C@@H](CCSC)C(=O)N[C@@H](CCCCN)C(N)=O)C(C)C)C(C)C [GFLSILKKVLGKVMAHMK] | 1.3 (≈ 2.6 µg/mL) | 1.8 (≈ 3.6 µg/mL) | 14.4 (≈ 28.8 µg/mL) | 4.3 (≈ 8.6 µg/mL) |  |
| CSCC[C@H](NC(=O)[C@H](Cc1cnc[nH]1)NC(=O)[C@H](C)NC(=O)[C@H](CCSC)NC(=O)[C@@H](NC(=O)[C@@H](N)CCCCN)C(C)C)C(=O)N[C@@H](CCCCN)C(N)=O [KVMAHMK] | ≥ 100 | ≥ 100 |  |  |  |
| CC[C@H](C)[C@H](N)C(=O)NCC(=O)N[C@@H](CCCCN)C(=O)N[C@@H](CCCCN)C(=O)N[C@@H](Cc1ccccc1)C(=O)N[C@@H](CCCCN)C(=O)N[C@@H](CCCN=C(N)N)C(=O)N[C@H](C(=O)N[C@H](C(=O)N[C@@H](CCC(N)=O)C(=O)N[C@@H](CCCN=C(N)N)C(=O)N[C@H](C(=O)N[C@@H](CCCCN)C(=O)N[C@@H](CC(=O)O)C(=O)N[C@@H](Cc1ccccc1)C(=O)N[C@@H](CC(C)C)C(=O)N[C@@H](CCCN=C(N)N)C(=O)N[C@@H](CC(N)=O)C(=O)N[C@@H](CC(C)C)C(=O)O)[C@@H](C)CC)C(C)C)[C@@H](C)CC [IGKKFKRIVQRIKDFLRNL] |  |  |  |  | MIC [4]: 2 µM (≈ 4.75 µg/mL); MIC [5]: 8 µM (≈ 19 µg/mL); MIC [6]: 8 µM (≈ 19 µg/mL); MIC [7]: 2 µM (≈ 4.75 µg/mL); MIC [8]: 4 µM (≈ 9.49 µg/mL); MIC [9]: 2 µM (≈ 4.75 µg/mL) |
| CC[C@H](C)[C@H](NC(=O)[C@H](CO)NC(=O)[C@H](C)NC(=O)[C@@H](NC(=O)[C@H](CCCCN)NC(=O)[C@H](CCCCN)NC(=O)[C@@H](N)Cc1c[nH]c2ccccc12)[C@@H](C)CC)C(=O)NCC(=O)N[C@@H](CCCCN)C(=O)N[C@@H](CCC(=O)O)C(=O)N[C@H](C(=O)N[C@@H](CC(C)C)C(=O)N[C@@H](CCCCN)C(=O)N[C@@H](C)C(=O)N[C@@H](CC(C)C)C(N)=O)C(C)C [WKKIASIGKEVLKAL] |  |  |  |  | MIC (Bacillus subtilis): ≥ 125 µM; MIC (Escherichia coli): 62 µM (≈ 104 µg/mL) |
| CC[C@H](C)[C@H](NC(=O)[C@H](C)NC(=O)CNC(=O)[C@H](CC(C)C)NC(=O)[C@@H](N)Cc1ccccc1)C(=O)N[C@@H](C)C(=O)N[C@@H](CCC(N)=O)C(=O)N[C@@H](C)C(=O)N[C@@H](CC(C)C)C(=O)N[C@H](C(=O)N[C@@H](CO)C(=O)N[C@@H](CC(C)C)C(=O)N[C@@H](CC(C)C)C(=O)NCC(=O)N[C@@H](CCCCN)C(=O)N[C@@H](CC(C)C)C(N)=O)[C@@H](C)O [FLGAIAQALTSLLGKL] |  |  |  |  | MIC [10]: ≥ 64 µM; MIC [2]: > 128 µM; MIC [11]: 8 µM (≈ 12.9 µg/mL) |
| CC[C@H](C)[C@H](NC(=O)[C@H](CCCCN)NC(=O)[C@H](CCCCN)NC(=O)[C@H](Cc1c[nH]c2ccccc12)NC(=O)[C@@H](NC(=O)[C@@H](N)CC(N)=O)C(C)C)C(=O)N[C@@H](CC(C)C)C(=O)NCC(=O)N[C@@H](CCCCN)C(=O)N[C@H](C(=O)N[C@H](C(=O)N[C@@H](CCCCN)C(=O)N[C@H](C(=O)N[C@@H](C)C(=O)N[C@@H](CCCCN)C(N)=O)C(C)C)[C@@H](C)CC)[C@@H](C)CC [NVWKKILGKIIKVAK] | 0.7 (≈ 1.22 µg/mL) | 1.1 (≈ 1.91 µg/mL) | 23.3 (≈ 40.5 µg/mL) | 19.7 (≈ 34.2 µg/mL) |  |
| CC[C@H](C)[C@H](NC(=O)[C@H](CCCCN)NC(=O)[C@H](CO)NC(=O)[C@H](Cc1c[nH]c2ccccc12)NC(=O)[C@H](CCSC)NC(=O)CN)C(=O)N[C@@H](CC(C)C)C(=O)NCC(=O)N[C@@H](Cc1cnc[nH]1)C(=O)N[C@@H](CC(C)C)C(N)=O [GMWSKILGHL] | 22.5 (≈ 25.7 µg/mL) | ≥ 100 | > 100 | > 100 |  |

Continued, in another order:

| MIC (Bacillus subtilis 168) [µM] | MIC (Escherichia coli B) [µM] | MIC (Pseudomonas aeruginosa) [µM] | MIC (Staphylococcus aureus) [µM] | Compound | also measured |
| --- | --- | --- | --- | --- | --- |
| 0.6 (≈ 1.07 µg/mL) | 1.4 (≈ 2.49 µg/mL) | 27.1 (≈ 48.2 µg/mL) | 2.2 (≈ 3.91 µg/mL) | CC[C@H](C)[C@H](NC(=O)[C@H](CCCCN)NC(=O)[C@H](CCCCN)NC(=O)[C@H](Cc1c[nH]c2ccccc12)NC(=O)[C@H](CC(N)=O)NC(=O)[C@@H](N)C(C)C)C(=O)N[C@@H](CC(C)C)C(=O)N[C@@H](C)C(=O)N[C@@H](CCCCN)C(=O)N[C@H](C(=O)N[C@H](C(=O)N[C@@H](CCCCN)C(=O)N[C@H](C(=O)N[C@H](C(=O)N[C@@H](CCCCN)C(N)=O)C(C)C)C(C)C)[C@@H](C)CC)[C@@H](C)CC [VNWKKILAKIIKVVK] |  |
| 0.7 (≈ 1.23 µg/mL) | 0.7 (≈ 1.23 µg/mL) | 22.5 (≈ 39.4 µg/mL) | 4.3 (≈ 7.53 µg/mL) | CC[C@H](C)[C@H](NC(=O)[C@H](CCCCN)NC(=O)[C@H](CCCCN)NC(=O)[C@H](Cc1c[nH]c2ccccc12)NC(=O)[C@H](CC(N)=O)NC(=O)[C@@H](N)C(C)C)C(=O)N[C@@H](CC(C)C)C(=O)N[C@@H](C)C(=O)N[C@@H](CCCCN)C(=O)N[C@H](C(=O)N[C@H](C(=O)N[C@@H](CCCCN)C(=O)N[C@H](C(=O)N[C@@H](C)C(=O)N[C@@H](CCCCN)C(N)=O)C(C)C)[C@@H](C)CC)[C@@H](C)CC [VNWKKILAKIIKVAK] |  |
